Values quoted from earlier work in patent US20080004295A1, “NOVEL COMPOUNDS” (priority 2005, published 2008).

Tests used:
PGD2 = conditions: dosed intranasally, phase I/II study, allergic rhinitis
[1] = phase II clinical trial, allergic rhinitis

Oc1cccc(Nc2ncc(F)c(Nc3cccc(O)c3)n2)c1 [Example R112]
change in PGD2 (PGD2): statistically significant decrease | safety across a range of indicators (PGD2): safe | efficacy versus placebo [1]: lack of efficacy
